The results in this text go back to article PMC6052416, “Selective inhibition of carbonic anhydrase-IX by sulphonamide derivatives induces pH and reactive oxygen species-mediated apoptosis in cervical cancer HeLa cells” (Journal of Enzyme Inhibition and Medicinal Chemistry, 2018).

Experiment [1] has as its system HT-29 (colon adenoma cancer). The experiment can be described thus: WST-1 cytotoxicity, HT-29. The format is cell-based, human. As to the method: (§1) Cancer and normal cell lines were purchased from ATCC and stored in liquid nitrogen. HT-29 (colon adenoma cancer), HeLa (cervix adenoma cancer cell), MDA-MB-231 (breast adenoma cancer cell), HEK-293 (embryonic kidney epithelial cell) and PNT-1A (normal prostate cells) cell lines were incubated in DMEM: F-12 and RPMI-1640, including 10% foetal bovine serum (FBS), 100 µg/mL streptomycin/100 IU/mL penicillin, at 37 °C in an incubator containing 5% CO2, 95% air in a humid atmosphere.
(§2) The cytotoxic effects of the substances were evaluated with WST-1 kits (Roche, Germany) in accordance with the manufacturer’s protocols. The cells were planted in 96-well plates (10^4 cells in each well). After incubation for 24 h, the media were discarded and the substances and 5-Fu as the control drug, at doses of 0, 2.5, 5, 10, 25, 50, 100 and 200 µM, were incubated for 24, 48 and 72 h. WST-1 reactive of 10 µL was added to all wells. Following 4-h incubation, the measurements were taken on a plate reader (Spectramax M5) at wavelengths of 450 and 630 nm. Graphs were then created and the IC50 value of each substance was calculated.

The test system of experiment [2] is HeLa (cervix adenoma cancer cell). The experiment is described as follows: WST-1 cytotoxicity, HeLa. It is filed as cell-based, human. As to the method:
as §1, §2

Experiment [3] deals with HeLa cells. The experiment can be described thus: DNA damage γ-H2AX immunofluorescence. The format is cell-based, human. The following applies: 24 h, concentration dependent. As to the method: HeLa cells (1 × 10^4/mL) were seeded in 12-well cell culture dishes and after 24 h, they were administered with the sulphonamide derivative compounds at doses of 10–25–50 µM and incubated for 24 h. The cells were washed with PBS and fixed with 100% methanol at −20 °C overnight, which was followed by PBS washing three times for 10 min for each washing. The cells were treated with 0.2% Triton X-100 in a shaker, at room temperature for 5 min. They were washed with PBS, and 1% BSA-containing PBS was then added, and incubation with primary mouse monoclonal anti-γ-H2AX antibody (Cell Signaling Technology, Danvers, MA) was applied at 37 °C for 1 h. The cells were washed with PBS for 5 min three times. Secondary goat anti-mouse Alexa-488-conjugated IgG (Invitrogen, Thermo Fisher Scientific, USA) was administered and the cells were incubated at 37 °C for 20 min, followed by PBS washing for 4–5 min three times. 1 mL 70% EtOH was added and, at +4 °C, released to incubation for 5 min. 1 mL 100% EtOH was added in a shaker, which was then incubated at room temperature for 1–2 min. The nucleus was stained with DAPI and the images were recorded using an Olympus Inverted Fluorescence Microscope (Olympus CKX53, DP73).

Experiment [4] deals with HeLa cells. The experiment can be described thus: Western blot of apoptosis proteins and CA IX. The format is cell-based, human. The note with it: 24 h. As to the method: The cells were seeded on 6 cm^2 cell culture dishes and treated with sulphonamide compounds, at doses of 10–25–50 µM, for 24 h. The cells were then washed with cold PBS, which was followed by lysis with RIPA lysis buffer (10 mM Tris-HCl pH = 8, 1 mM EDTA, 1 mM EGTA, 140 mM NaCl, 1% Triton X-100, 0.1 SDS, 0.1% sodium deoxycholate), 1X phosphates and protease inhibitor (Santa Cruz Biotechnology, Dallas, USA). The acquired supernatants from the lysates which were centrifuged at 12,000 g, + 4 °C, for 10 min, were transferred to new tubes. Protein concentration was detected using the protein assay kit BCA (Thermo Fisher Scientific, Waltham, MA). After a 30-min period of protein (50 µg) standing in 10% SDS–PAGE gel at 50 V and at 80 V for 3 h, those were blotted to PVDF membrane at 70 V for 5 min (Bio-Rad Turbo Transfer System). After embedding in 1X TBST (12.1 g Tris, pH 7.5, 70 g NaCl, 0.1% Tween-20) containing 5% dry milk or 5% BSA, the primer monoclonal antibodies shown in Table 2 were applied to the membrane and left overnight, which was followed by washing with 1 X TBS-T and an incubation period with secondary antibodies of HRP rabbit or mouse (1/10.000) for 60 min. The membrane was again washed with 1 X TBS-T. For band imaging, ECL substrate (EMD Millipore Corp., Billerica, MA) was added and observations were made via the imaging system (LI-COR Odyssey Fc).
A general note: A western blot detects proteins with antibodies after separation by electrophoresis.

For experiment [5], the system named is HEK-293 (embryonic kidney epithelial cell). The experiment can be described thus: WST-1 cytotoxicity, HEK-293. The format is cell-based. The following applies: normal cell. As to the method: as §1, §2
On the technique in general: Tetrazolium dyes change colour on reduction, which living cells bring about.

The subject of experiment [6] is HeLa cells. The experiment can be described thus: Mitochondrial membrane potential (JC-1). It is filed as cell-based, human. The following applies: JC-1, 0–200 μM, 24 h. As to the method: Mitochondrial membrane potential (MMP) changes appearing in the intrinsic pathway of mitochondria were spectrophotometrically detected. MMP was measured in a fluorometry device (Spectramax, M5), at wavelengths of 490 nm (excitation) and 530 nm(emission) according to the fluorometric Mitochondria Staining Kit (Sigma, Germany, CS0390) protocol.

For experiment [7], the system named is HeLa cells. The experiment is described as follows: Intracellular pH, extracellular pH and lactate level. It is filed as cell-based, human. As to the method: Intracellular PH was measured according to the protocol of the fluorometric intracellular pH assay kit (Sigma, Germany, MAK-150). Fluorescent BCFL-AM indicator that was able to pass through the cell membrane was used to measure pHi fluctuations in the fluorometric intracellular pH kit. BCFL-AM was utilised to measure the reductions in pHi of the cells that had been treated by various conditions. The cells were planted in black plates, as 6 × 10^4 in each well of the plate, and incubated for 24 h. The medium was replaced with BCFL-AM reagent which had been prepared in 100 µL of HBS solution (Hank’s buffer with 20 mM HEPES, 5 mM probenecid), then the cells were incubated at 37 °C in an atmosphere of 5% CO2 for 30 min (protected from light). Sulphonamide compound at doses of 0, 10, 25 and 50 µM was added to the HBS solution. In the next 5 min, the measurement was performed at wavelengths of 490 nm (excitation) and 535 nm (emission) in spectrofluorimetry (Spectramax, M5). Extracellular pH (pHe) and lactate levels were measured with commercial kit by the blood gas device (ABL90 FLEX PLUS, Radiometer, Copenhagen, Denmark) which is routinely used in the clinical biochemistry laboratory of hospital. After the application of the substance in this method, the media were analysed directly by the device.

SMILES strings stand for the structures. Where two headings read alike, the source gives them in different places.

As usually defined, the IC50 is the midpoint of a concentration-inhibition curve.

For the compound `NS(=O)(=O)c1ccc(CCN=Cc2cc(Br)ccc2O)cc1` [Compound 1], the IC50 was 46.1 ± 5.4 µM in experiment [1] (WST-1, 24 h, read-out: IC50 HT-29 24 h); 43.8 ± 1.2 µM in experiment [1] (WST-1, 48 h, read-out: IC50 HT-29 48 h); 108 ± 34.5 µM in experiment [1] (WST-1, 72 h, read-out: IC50 HT-29 72 h); 19.9 ± 1.1 µM in experiment [2] (WST-1, 24 h, mean of three experiments, read-out: IC50 HeLa 24 h); 18.8 ± 1.1 µM in experiment [2] (WST-1, 48 h, read-out: IC50 HeLa 48 h); 11.3 ± 1.1 µM in experiment [2] (WST-1, 72 h, read-out: IC50 HeLa 72 h). Also, the IC50 in experiment [5] (WST-1, 24 h, read-out: IC50 HEK-293 24 h) turned out to be 59.7 ± 11.2 µM; in experiment [5] (WST-1, 48 h, read-out: IC50 HEK-293 48 h), 83.6 ± 21.2 µM; in experiment [5] (WST-1, 72 h, read-out: IC50 HEK-293 72 h), 35.8 ± 11.2 µM. In addition, the “DNA damage (γ-H2AX foci)” value in the experiment with HeLa cells [3] is recorded as “increasing γ-H2AX focus points”. Moreover, the “CA IX protein expression” value in the experiment on HeLa cells [4] (HeLa, 50μM) is given as “increase”. In addition, the “cleaved caspase-8 level” value in the experiment with HeLa cells [4] (HeLa, 50μM) is listed as “increase”. Besides, the “cleaved caspase-9 level” value in the experiment with HeLa cells [4] (HeLa, 10, 25, 50 µM) is on record as “increase”. For the same compound, in the experiment with HeLa cells [4] (HeLa), the “cleaved caspase-3 level” value is “significantly increased”. The cleaved-PARP level result in the experiment with HeLa cells [4] (HeLa) is given as “increase”. Also, the “mitochondrial membrane potential (MMP)” value in the experiment with HeLa cells [6] is recorded as “reduced in a dose-dependent manner”. Further, the “lactate level of media” value with HeLa cells [7] (HeLa cell media) is recorded as “significant dose-related fall”. In the experiment on HeLa cells [7] (HeLa cell media), the pHe entry is on record as “significant increase”. In addition, the pHi entry in the experiment with HeLa cells [7] (HeLa, 0, 10, 25 and 50 µM) is recorded as “significant dose-related fall”.
